From ChEMBL document CHEMBL1150853, “A new dehydrogeranylgeraniol antioxidant from Saururus cernuus that inhibits intracellular reactive oxygen species (ROS)-catalyzed oxidation within HL-60 cells” (J Nat Prod, 2001)
The source made the active and inactive calls. The rule behind the calls is not given here.

Tests used:
HL-60 [1] = assay: Antioxidant activity in phorbol 12-myristate 13-acetate-stimulated human HL60 cells assessed as inhibition of exogenous hydrogen peroxide-catalyzed oxidation of 2',7'-dichlorodihydrofluorescein diacetate at 50 ug/mL pretreated 30 mins before PMA challenge by flow cytometry; type: functional, cell-based
HL-60 [2] = assay: Antioxidant activity in human HL60 cells assessed as inhibition of endogenous hydrogen peroxide-catalyzed oxidation of 2',7'-dichlorodihydrofluorescein diacetate at 50 ug/mL by flow cytometry; type: functional, cell-based
[3] = test system: Radical scavenging activity; assay: Antioxidant activity assessed as DPPH radical scavenging activity after 30 mins by modified 2D TLC autographic assay; type: functional
HL-60 [4] = assay: Antioxidant activity in human HL60 cells assessed as inhibition of endogenous hydrogen peroxide-catalyzed oxidation of 2',7'-dichlorodihydrofluorescein diacetate at 5 ug/mL by flow cytometry; type: functional
HL-60 [5] = assay: Cytotoxicity against human HL60 cells at 5 ug/mL after 4 hrs by XTT assay; type: cell-based; conditions: hl-60, 4 h
HL-60 [6] = assay: Antioxidant activity in phorbol 12-myristate 13-acetate-stimulated human HL60 cells assessed as inhibition of exogenous hydrogen peroxide-catalyzed oxidation of 2',7'-dichlorodihydrofluorescein diacetate at 5 ug/mL pretreated 30 mins before PMA challenge by flow cytometry; type: functional
Colletotrichum acutatum = assay: Antifungal activity against Colletotrichum acutatum at 100 nmol by 2D-TLC bioautography assay; type: functional, organism-based
Colletotrichum fragariae = assay: Antifungal activity against Colletotrichum fragariae at 100 nmol by 2D-TLC bioautography assay; type: functional, organism-based
[7] = test system: Colletotrichum gloeosporioides; assay: Antifungal activity against Colletotrichum gloeosporioides at 100 nmol by 2D-TLC bioautography assay; type: functional, organism-based

Row | Molecule | inhibition (HL-60 [1]) [%] | inhibition (HL-60 [2]) | Activity [3] | inhibition at 5 µg/mL (HL-60 [4]) [%] | Activity (HL-60 [5]) | inhibition at 5 µg/mL (HL-60 [6]) [%] | Activity (Colletotrichum acutatum) | Activity (Colletotrichum fragariae) | Activity [7]
1 | VITAMIN E | 32.4 | inactive |  |  |  |  |  |  | 
2 | CC(C)=C/C=C/C(C)=C/CC/C(C)=C/CC/C(C)=C/CO |  |  | Active | 8 | Non-toxic | 28 | Active | Active | Active
